Assay results from US6642251B1, “Geometrically restricted 2-indolinone derivatives as modulators of protein kinase activity” (Sugen, Inc., priority 1998, dated 2003).
pIC50: −log10 of the molar value. Several values for one entry are separate records, joined by “and”; a condition that tells them apart may be missing. Identical values can stand only once. Like-named read-outs stand apart in the source and are kept apart here.

How the values were obtained:
PDGFR = target: T1, PDGFR (Homo sapiens, UniProt P09619); assay: Biochemical PDGFR assay (bio PDGFR), ELISA
T1 construct: expressed in transfected cells; host or cells: NIH 3T3
T1 sequence (P09619 33-1106, species assumed): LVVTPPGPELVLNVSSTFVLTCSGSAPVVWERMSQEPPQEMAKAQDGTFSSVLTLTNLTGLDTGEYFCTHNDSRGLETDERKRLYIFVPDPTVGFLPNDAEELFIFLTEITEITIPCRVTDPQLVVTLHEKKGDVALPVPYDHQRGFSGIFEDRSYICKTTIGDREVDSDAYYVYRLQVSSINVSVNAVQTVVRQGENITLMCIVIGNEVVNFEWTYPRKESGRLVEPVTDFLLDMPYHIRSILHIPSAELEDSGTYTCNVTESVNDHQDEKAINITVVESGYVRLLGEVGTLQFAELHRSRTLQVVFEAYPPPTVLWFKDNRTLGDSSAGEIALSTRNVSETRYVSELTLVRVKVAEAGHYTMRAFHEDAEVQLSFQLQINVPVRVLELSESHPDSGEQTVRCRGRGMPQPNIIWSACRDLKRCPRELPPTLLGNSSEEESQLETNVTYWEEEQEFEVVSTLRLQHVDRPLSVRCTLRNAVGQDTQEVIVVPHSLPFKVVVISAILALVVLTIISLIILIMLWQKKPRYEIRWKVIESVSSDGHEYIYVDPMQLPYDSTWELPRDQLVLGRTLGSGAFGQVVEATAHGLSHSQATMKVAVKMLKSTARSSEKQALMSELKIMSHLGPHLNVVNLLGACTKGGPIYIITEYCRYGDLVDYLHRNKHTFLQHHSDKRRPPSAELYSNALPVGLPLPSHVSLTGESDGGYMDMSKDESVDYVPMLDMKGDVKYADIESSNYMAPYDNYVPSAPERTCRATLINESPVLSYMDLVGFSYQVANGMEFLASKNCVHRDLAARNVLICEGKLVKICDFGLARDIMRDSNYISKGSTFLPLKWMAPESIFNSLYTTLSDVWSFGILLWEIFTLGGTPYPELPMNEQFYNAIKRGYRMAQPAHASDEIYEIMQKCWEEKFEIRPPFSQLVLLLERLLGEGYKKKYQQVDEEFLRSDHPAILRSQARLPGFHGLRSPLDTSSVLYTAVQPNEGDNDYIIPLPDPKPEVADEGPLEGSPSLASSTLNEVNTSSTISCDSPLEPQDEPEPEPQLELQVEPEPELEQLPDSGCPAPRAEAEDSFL
Experimental: This assay measures the in vitro kinase activity of PDGFR using ELISA.
6. PDGFR-β expressing NIH 3T3 cell lysate (Screening Lab, SUGEN, Inc.).
1. Coat Corning 96 well ELISA plates with 0.5 μg 28D4C10 in 100 μl PBS per well, store overnight at 4° C.
2. Remove unbound 28D4C10 from wells by inverting plate to remove liquid. Wash 1× with dH2O. Pat the plate on a paper towel to remove excess liquid.
(§1) 3. Add 150 μl of Blocking Buffer to each well. Incubate for 30 min. at room temperature with shaking.
(§2) 4. Wash plate 3× with deionized water, then once with TBST. Pat plate on a paper towel to remove excess liquid and bubbles.
5. Dilute lysate in HNTG (10 μg lysate/100 μl HNTG)
(§3) 6. Add 100 μl of diluted lysate to each well. Shake at room temperature for 60 min.
(§4) 7. Wash plates as described in 4, above.
8. Add 80 μl working kinase buffer mix to ELISA plate containing captured PDGFR.
10. Add 10 μl diluted test compound to ELISA plate.
(§5) 11. Incubate for 30 minutes while shaking at room temperature.
12. Add 10 μl ATP directly to all wells except negative control well (final well volume should be approximately 100 μl with 20 μM ATP in each well.) Incubate 30 minutes while shaking.
13. After 30 minutes, stop reaction by adding 10 μl of 200 mM EDTA (pH 8.0) to each well.
(§6) 14. Wash 4× with deionized water, twice with TBST.
15. Add 100 μl anti-phosphotyrosine (1:3000 dilution in TBST) per well. Incubate 30-45 min. at room temperature, with shaking.
(§7) 16. Wash as described in 4, above.
17. […] Incubate 30 min. at room temperature, with shaking.
(§8) 18. Wash as described in 4, above.
(§9) 19. Add 100 μl of ABTS/H2O2 solution to each well.
20. Incubate 10 to 30 minutes with shaking. Remove any bubbles.
(§10) 21. If necessary stop reaction with the addition of 100 μl 0.2 M HCl per well.

src protein kinase = target: T2, src protein kinase (Gallus gallus, UniProt P00523); assay: Biochemical src assay (bio SRC); settings: for pIC50: 50% inhibition of target PTK activity; on bio SRC, outcome of primary assay: key: DNH = did not hit in primary assay
T2 construct: made in house; host or cells: Schizosaccharomyces pombe strain SP200
Experimental: This assay is used to determine src protein kinase activity measuring phosphorylation of a biotinylated peptide as the readout.
a. Yeast transformed with src (Sugen, Inc., Redwood City, Calif.).
1. Coat ELISA plate with 0.5 μg/well anti-src mab in 100 μl of pH 9.6 sodium carbonate buffer; hold at 4° C. overnight.
2. Wash wells once with PBS.
3. Block plate with 0.15 ml 5% milk in PBS for 30 min. at room temperature.
4. Wash plate 5× with PBS.
5. Add 10 μg/well of src transformed yeast lysates diluted in Lysis Buffer (0.1 ml total volume per well). (Amount of lysate may vary between batches.) Shake plate for 20 minutes at room temperature.
1. 4G10 plate: coat 0.5 μg/well 4G10 in 100 μl PBS overnight at 4° C. and block with 150 μl of 5% milk in PBS for 30 minutes at room temperature.
1. Remove unbound proteins.from plates and wash plates 5× with PBS.
2. Add 0.08 ml Kinase Reaction Mixture per well (containing 10 μl of 10×-Kinase Buffer and 10 μM (final concentration) biotin-EEEYEEYEEEYEEEYEEEY per well diluted in water.
3. Add 10 μl of compound diluted in water containing 10% DMSO and pre-incubate for 15 minutes at room temperature.
4. Start kinase reaction by adding 10 μl/well of 0.05 mM ATP in water (5 μM ATP final).
5. Shake ELISA plate for 15 min. at room temperature.
6. Stop kinase reaction by adding 10 μl of 0.5 M EDTA per well.
7. Transfer 90 μl supernatant to a blocked 4G10 coated ELISA plate.
8. Incubate for 30 min. while shaking at room temperature.
9. Wash plate 5× with TBST.
10. Incubate with Vectastain ELITE ABC reagent (100 μl/well) for 30 min. at room temperature.
11. Wash the wells 5× with TBST.
12. Develop with Turbo TMB.

EGFR = EGFR (Homo sapiens, UniProt P00533); assay: Biochemical EGFR assay (bio EGFR), ELISA; set-up: A431 cell lysate (Screening Lab, SUGEN, Inc.); endogenous in cells; host or cells: A431; settings: 50% inhibition of target PTK activity; read-out: bio EGFR (Page 5) IC50
Chain of EGFR (P00533 25-1210): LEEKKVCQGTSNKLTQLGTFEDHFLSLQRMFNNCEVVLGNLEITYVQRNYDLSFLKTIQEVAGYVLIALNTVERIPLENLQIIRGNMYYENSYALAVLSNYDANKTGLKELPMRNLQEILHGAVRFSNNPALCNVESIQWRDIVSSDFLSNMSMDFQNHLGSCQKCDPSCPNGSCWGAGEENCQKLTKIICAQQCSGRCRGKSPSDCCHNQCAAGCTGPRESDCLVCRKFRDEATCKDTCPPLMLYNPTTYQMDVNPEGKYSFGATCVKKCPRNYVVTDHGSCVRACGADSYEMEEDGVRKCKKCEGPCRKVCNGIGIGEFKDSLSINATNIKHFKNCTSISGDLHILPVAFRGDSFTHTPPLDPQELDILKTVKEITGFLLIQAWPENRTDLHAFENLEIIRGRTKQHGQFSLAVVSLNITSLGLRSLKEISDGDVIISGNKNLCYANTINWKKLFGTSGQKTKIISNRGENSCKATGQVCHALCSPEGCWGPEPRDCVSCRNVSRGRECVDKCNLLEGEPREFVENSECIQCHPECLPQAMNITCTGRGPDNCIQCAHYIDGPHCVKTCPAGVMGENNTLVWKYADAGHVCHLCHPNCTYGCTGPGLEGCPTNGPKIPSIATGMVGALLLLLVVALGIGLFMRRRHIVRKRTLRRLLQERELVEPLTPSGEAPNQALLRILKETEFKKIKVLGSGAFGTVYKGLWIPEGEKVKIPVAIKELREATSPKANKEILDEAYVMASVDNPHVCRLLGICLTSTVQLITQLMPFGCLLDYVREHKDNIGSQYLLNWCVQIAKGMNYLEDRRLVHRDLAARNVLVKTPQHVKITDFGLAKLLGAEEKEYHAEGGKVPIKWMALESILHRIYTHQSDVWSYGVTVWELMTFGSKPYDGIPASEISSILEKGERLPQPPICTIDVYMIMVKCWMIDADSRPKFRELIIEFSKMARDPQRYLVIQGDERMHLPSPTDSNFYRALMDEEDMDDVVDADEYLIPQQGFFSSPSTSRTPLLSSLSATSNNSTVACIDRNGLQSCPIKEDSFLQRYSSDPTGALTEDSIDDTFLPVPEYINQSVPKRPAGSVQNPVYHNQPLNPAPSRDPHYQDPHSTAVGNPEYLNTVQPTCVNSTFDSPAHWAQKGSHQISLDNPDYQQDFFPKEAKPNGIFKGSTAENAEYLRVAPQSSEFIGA
Experimental: This assay measures the in vitro kinase activity of EGFR using ELISA.
6. A431 cell lysate (Screening Lab, SUGEN, Inc.)
1. Coat Corning 96 well ELISA plates with 0.5 μg […] in
100 μl PBS per well, store overnight at 4° C.
2. Remove unbound SUMO1 from wells by inverting plate to remove liquid. Wash 1× with dH2O. Pat the plate on a paper towel to remove excess liquid.
as §1, §2
5. Dilute lysate in PBS (7 μg lysate/100 μl PBS).
as §3, §4
8. Add 120 μl TBS to ELISA plate containing captured EGFR.
9. Dilute test compound 1:10 in TBS in 96-well polypropylene plates (ie. 10 μl compound+90 μl TBS).
10. Add 13.5 μl diluted test compound to ELISA plate.
as §5
13. After 5 minutes, stop reaction by adding 16.5 μl of 200 mM EDTA (pH 8.0) to each well, shaking continuously. After the EDTA has been added, shake for 1 min.
as §6
15. Add 100 μl anti-phosphotyrosine (1:3000 dilution.in TBST) per well. Incubate 30-45 min. at room temperature, with shaking.
as §7
17. Add 100 μl Biosource Goat anti-rabbit IgG peroxidase conjugate (1:2000 dilution in TBST) to each well. Incubate 30 min. at room temperature, with shaking.
as §8, §9
20. Incubate 5 to 10 minutes with shaking. Remove any bubbles.
as §10
22. Read assay on Dynatech MR7000 ELISA reader. Test Filter: 410 nM Reference Filter: 630 nM

[1] = 50% inhibition of target PTK activity, read-out: bio PDGFR IC50
[2] = bio PDGFR IC50, 50% inhibition of target PTK activity

Row | SMILES | pIC50 (PDGFR; [1]) | bio SRC, outcome of primary assay (src protein kinase) | pIC50 (EGFR) | pIC50 (PDGFR; [2]) | pIC50 (src protein kinase)
1 | CC1C/C(=C2/C(=O)Nc3ccccc32)c2ccccc21 (centres unmarked) [Compound 1, 3-(3-methylindan-1-ylidene)-1,3-dihydroindol-2-one] | < 4.00 | DNH | < 4.00 | – | –
2 | COc1ccc2c(c1)CC/C2=C1/C(=O)Nc2ccccc21 [Compound 3, 3-(5-Methoxyindan-1-ylidene)-1,3-dihydroindol-2-one] | – | DNH | < 4.00 | 4.06 | –
3 | O=C1Nc2ccccc2/C1=C1\CCc2cc(N3CCCCC3)ccc21 [Compound 8, 3-(5-Piperidin-1-yl-indan-1-ylidene)-1,3-dihydroindol-2-one] | < 4.00 | – | < 4.00 | – | –
4 | O=C1Nc2ccccc2/C1=C1\CCc2ccccc21 [Compound 10, 3-Indan-1-ylidene-1,3-dihydroindol-2-one] | 4.20 | – | < 4.00 | – | < 4.00
5 | COc1ccc2c(c1)C(CC(=O)O)C/C2=C1/C(=O)Nc2ccccc21 (centres unmarked) [Compound 11, [6-Methoxy-3-(2-oxo-1,2-dihydroindol-3-ylidene)-indan-1-yl]acetic Acid] | 5.82 | – | < 4.00 | – | –
6 | COc1cc2c(cc1OC)/C(=C1\C(=O)Nc3ccccc31)CC2 [Compound 12, 3-(5,6-Dimethoxyindan-1-ylidene)-1,3-dihydroindol-2-one] | < 4.60 | – | < 4.60 | – | < 4.60
7 | COc1ccc2c(c1)C(CC(=O)[O-])CC2=C1C(=O)Nc2ccccc21.[Na+] (centres unmarked) [Compound 13, [6-Methoxy-3-(2-oxo-1,2-dihydroindol-3-ylidene)-indan-1-yl]acetic Acid Sodium Salt] | – | – | < 4.00 | 6.00 and 5.49 | –

Other lines, results leading:

Row | pIC50 (PDGFR; [1]) | bio SRC, outcome of primary assay (src protein kinase) | pIC50 (EGFR) | pIC50 (PDGFR; [2]) | pIC50 (src protein kinase) | SMILES
8 | < 4.00 | DNH | < 4.00 | – | – | Cc1cccc2c1CC/C2=C1/C(=O)Nc2ccccc21 [Compound 2, 3-(4-Methylindan-1-ylidene)-1,3-dihydroindol-2-one]
9 | 4.29 | – | < 4.00 | – | < 4.00 | CN(C)c1ccc2c(c1)CC/C2=C1/C(=O)Nc2ccccc21 [Compound 5, 3-(5-Dimethylaminoindan-1-ylidene)-1,3-dihydroindol-2-one]
10 | < 4.00 | – | < 4.00 | – | < 4.00 | O=C1Nc2ccccc2/C1=C1\CCc2cc(Cl)ccc21 [Compound 7, 3-(5-Chloroindan-1-ylidene)-1,3-dihydroindol-2-one]
11 | < 4.00 | – | < 4.00 | – | – | O=C1Nc2ccccc2/C1=C1\CCc2cc(Br)ccc21 [Compound 9, 3-(5-Bromoindan-1-ylidene)-1,3-dihydroindol-2-one]
